From patent US5159085A, “2-anilino phenylacetic acid derivatives as inhibitors of PLA2 and lipoxygenase” (American Home Products Corporation, priority 1991, dated 1992) come the findings set out here.

Assay [1] relates to paw edema induced by exogenous PLA2 (snake, A. piscivorus piscivorus). Description: In vivo PLA2 murine paw edema assay. Particulars: for ED50 at +10 min: mouse; for change in vivo at 1 mg/kg: Mus musculus, ip, 0.5 h; for % Change in Edema 30 min / change in vivo at 1 mg/kg: 30 min. On the set-up: species or system mouse (male CD-1). The protocol:
The ability of the compounds of the invention to inhibit paw edema induced by the exogenous administration of PLA2 is measured in the in vivo PLA2 murine paw edema assay.
(§1) The assay is carried out as follows:
Non-fasted, male CD-1 mice (8 weeks old; 31-36 grams) are placed in plastic boxes in groups of six. The right hind paw volume is measured using mercury plethysmography (zero time). […] A solution of purified PLA2, from the diamond back cotton mouth snake (A. piscivorus piscivorus) is prepared in saline at a concentration of 6 μg/ml. Fifty (50) μl (0.3 μg) of this PLA2 solution is injected subcutaneously into the right hind paw with a plastic 1 ml plastic syringe (27 gauge, 1" needle). Paw volume of the injected paw is measured again at 10 minutes, 30 minutes and 60 minutes after PLA2 injection. Animals are euthanized with CO2 at the completion of the study.
The paw edema is calculated by subtracting the zero time volume from the volume recorded at each time period. Mean paw edema for each treatment group is then calculated and expressed as (μl±S.E.). Drug effects are expressed as a percent change from control (vehicle) values. Statistical significance is determined by a one-way analysis of variance with LSD comparison to control (p<0.05). ED50 's are determined using repression analysis.

The target in assay [2] is T1, human platelet PLA2 (Homo sapiens, UniProt P14555).
T1 construct: Semipurified human platelet acid extract PLA2; from tissue; host or cells: human platelets (semipurified acid extract)
T1 sequence (P14555 21-144): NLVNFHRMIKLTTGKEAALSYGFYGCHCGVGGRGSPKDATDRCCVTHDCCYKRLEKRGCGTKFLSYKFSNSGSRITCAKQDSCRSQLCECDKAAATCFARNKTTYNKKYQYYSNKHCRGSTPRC
Kind of assay: In vitro isolated phospholipase A2 assay, human platelet PLA2 (arachidonic acid release from 3H-AA E. coli substrate). The class given is biochemical. The note with it: human platelet; for inhibition at 10 µM: negative values denote potentiation, read-out: % Inhibition at 10 μM HP.

In assay [3] the test system is TxB2 synthesis (cyclooxygenase) by rat glycogen-elicited polymorphonuclear leukocytes. Description: Inhibition of TxB2 synthesis by rat glycogen-elicited PMN (cyclooxygenase). The note with it: for inhibition at 0.5 µM: negative values denote potentiation of cyclooxygenase; for IC50: rat PMN, read-out: IC50 (TxB2 synthesis). The class given is cell-based, rat (female Wistar). The procedure: (§2) Rat polymorphonuclear leukocytes (PMNs) are obtained from female Wistar rats (150-200 g) which receive an injection of 6% glycogen (10 ml i.p.). Rats are sacrificed 18-24 hours post injection by CO2 asphyxiation and the elicited cells are harvested by peritoneal lavage using physiological saline (0.9% NaCl). The exudate is centrifuged at 400×g for 10 minutes. The supernatant fluid is discarded and the cell pellet is resuspended to a concentration of 2.0×10^7 cells/ml in HBSS containing Ca^++ and Mg^++ and 10 μM L-cysteine.
(§3) To 1 ml aliquots of cell suspension, test drugs or vehicle are added, then preincubated at 37° C. for 10 minutes. A 23187 (1 μM), [^3 H]-AA (3.0 μCi/ml) and unlabeled AA (1 μM) are then added and the samples are further incubated for 10 minutes. The reaction is terminated by centrifugation and pelleting cells. Supernatants are then analyzed by HPLC analysis on a 15 cm×4.6 mm ID supelcosil LC-18 (Supelco)(3M) column, using a two solvent system at a flow rate of 1.4 ml total flow as follows:
(§4) Percent solvent changes are accomplished in a linear fashion.
(§5) Injections: 150 μl of each supernatant is injected directly onto column and ^3 H arachidonic acid metabolites are monitored using an on-line radioactivity detector (Ramona, IN/US, Fairfield, NJ).
(§6) Standards: 10^4 -2.0×10^4 dpm of eicosanoids of interest are injected in 90 μl EtOH cocktail.
(§7) Co-chromatography with standard [^3 H] leukotriene B4 (LTB4) in medium of stimulated PMN exposed to drug is compared to that found in medium of stimulated cells exposed to no drug, generating percent inhibition.
(§8) Results are expressed as percent inhibition at a given compound dose or as an IC50 value.
In this assay, the procedure of Example 19 is carried out as described. However, in order to determine cyclooxygenase activity, the samples are co-chromatographed with authentic reference [^3 H]-TxB2.
The results are calculated as in Example 19 and presented below: […]

Assay [4] has as its system LTB4 synthesis by rat glycogen-elicited polymorphonuclear leukocytes (lipoxygenase). Kind of assay: Inhibition of LTB4 synthesis by rat glycogen-elicited polymorphonuclear leukocytes (PMN). The note with it: A 23187 and exogenous AA; for inhibition at 0.5 µM: negative value denotes potentiation. It is filed as cell-based, rat (female Wistar).
From the text: This is especially true with respect to 5,12-diHETE, which is also denoted as LTB4 [see Ford-Hitchinson, J. Roy. Soc. Med., 74, 831 (1981)]. Compounds which inhibit the PLA2 -mediated release of arachidonic acid thereby effectively prevent the oxidation of arachidonic acid to the various leukotriene products via the lipoxygenase cascade. Accordingly, the specificity of action of PLA2 inhibitors can be determined by the activity of test compounds in this assay, which measures the ability of compounds to inhibit the synthesis of LTB4 by rat glycogen-elicited polymorphonuclear leukocytes (PMN) in the presence of exogenous substrate.
as §1, §2, §3
Gradient: (system is equillibrated with Solvent A)
as §4, §5, §6, §7, §8

Assay [5] concerns the target T2, human synovial fluid PLA2 (Homo sapiens, UniProt P14555).
T2 construct: Purified human synovial fluid; from tissue; host or cells: human synovial fluid
T2 sequence (P14555 21-144): T1 sequence (P14555 21-144)
Kind of assay: In vitro isolated phospholipase A2 assay, human synovial fluid PLA2. It is filed as biochemical. The note with it: 10 μM; human synovial fluid; negative values denote potentiation; read-out: % Inhibition at 10 μM HSF. The procedure: The compounds of the invention are tested in an in vitro isolated phospholipase A2 assay to determine the ability of the test compounds to inhibit the release of arachidonic acid from an arachidonic acid-containing substrate by the action of phospholipase A2 enzyme from human and non-human sources.
This assay is carried out as follows:
Into a 15 mL polypropylene tube are added the following:
*pre-incubate at room temperature 30 min prior to substrate addition.
^5 Stock 10 mM prepared in dimethyl sulfoxide. Make 1:2 dilution with
dimethyl sulfoxide and add 1 μ L to 100 μL assay tube.
^6 Two human PLA2 enzymes are used:
b) Purified human synovial fluid.
Incubate the 100 μL reaction mixture for 10 minutes at 37° C. in a shaking water bath. The reaction is terminated by the addition of 2 mL tetrahydrofuran, followed by vortexing. NH2 columns (100 μg/mL--Analytichem International) are conditioned with 0.5 mL tetrahydrofuran followed by 0.5 mL tetrahydrofuran/water (2 mL:0.1 mL, v/v).
The sample is loaded onto the columns and slowly drawn through them. The hydrolyzed arachidonic acid retained in the columns is eluted therefrom with 1 mL tetrahydrofuran/glacial acetic acid (2%). The arachidonic acid is transferred to scintillation vials and quantitated by β-counting analysis. A "total counts" sample is prepared by pipetting 25 μL ^3 H-arachidonate E. coli directly into a scintillation vial to which is added 1 mL tetrahydrofuran. 10 mL aquasol (scintillation cocktail) is added to all samples. [formula]

Counter-ions that a name gives are not always drawn. Like-named read-outs stand apart in the source and are kept apart here.

`COc1ccc2cc([C@H](C)C(=O)O)ccc2c1` [Naproxen, reference compound]: the ED50 (usually the dose at which the effect has come halfway, by size or by number of responders) at +10 min in assay [1] (p.o., standard drugs) was 18 mg/kg.
In the case of `O=C1Cc2cc(OCc3ccc4ccccc4n3)ccc2N1c1c(Cl)cccc1Cl` [Example 13], the “% Inhibition HP” value in assay [2] ("at 50 SM") came to 12.5%. Also, the inhibition (usually the change of the read-out against control, counted positive when it falls) at 0.5 µM is 10% in assay [3] (Rattus norvegicus, Leukocyte) and 89% in assay [4] (Leukocyte). Also, the inhibition at 10 µM in assay [5] was -11%.
For the compound `O=C1Cc2cc(OCc3ccc4ccc(Cl)cc4n3)ccc2N1c1c(Cl)cccc1Cl` [Example 18, 1-(2,6-Dichlorophenyl)-5-[7-chloro-2-(quinolinylmethoxy)]-1,3-dihydro-2H-indol-2-one], the inhibition at 10 µM in assay [2] came to 2.2%; in assay [5], 5.1%.
Turning to `C[C@@H]1C[C@H]2[C@@H]3CCC4=CC(=O)C=C[C@]4(C)[C@@]3(F)[C@@H](O)C[C@]2(C)[C@@]1(O)C(=O)CO` [Dexamethasone, reference compound], the “ED50 at +10 min” value in assay [1] (p.o. 3 hr, standard drug) turned out to be 10 mg/kg.
Regarding `COC(=O)Cc1cc(OCc2nc3ccccc3n2C)ccc1Nc1c(Cl)cccc1Cl` [Example 10, 2-[(2,6-Dichlorophenyl)amino]-5-[(1-methyl-1H-benzimidazol-2-yl)methoxy]benzene acetic acid methyl ester], in assay [3] (Rattus norvegicus, Leukocyte), the inhibition at 0.5 µM was determined as 32%. In assay [1] (1 mg/kg i.p.), the “% Change in Edema 10 min” value is recorded as -29% and the change in vivo at 1 mg/kg was -20%. Also, in assay [1] (10 mg/kg i.p.), the “% Change in Edema 10 min” value was -49% and the “% Change in Edema 30 min” value is on record as -36%. For the same compound, the inhibition at 0.5 µM in assay [4] (Leukocyte) is 65%.
As to `Cn1c(COc2ccc(Nc3c(Cl)cccc3Cl)c(CC(=O)O)c2)nc2ccccc21` [Example 11, acetic acid], the inhibition at 0.5 µM in assay [3] (Rattus norvegicus, Leukocyte) is -8%; in assay [4] (Leukocyte), -6%. Also, in assay [5], the inhibition at 10 µM is 33.3%.
`O=C(O)Cc1cc(OCc2ccc3ccccc3n2)ccc1Nc1ccccc1` [Example 16, 2-(Phenylamino)-5-(2-quinolinylmethoxy)benzene acetic acid]: the figures for the inhibition at 10 µM in assay [2] and in assay [5] were 14.2% and -4.3%, respectively. Moreover, the inhibition at 0.5 µM was found to be 10% in assay [3] (Rattus norvegicus, Leukocyte) and 90% in assay [4] (Leukocyte).
On to `COC(=O)Cc1cc(OCc2ccc3ccccc3n2)ccc1Nc1c(Cl)cccc1Cl` [Example 1, 2-[(2,6-Dichlorophenyl)amino]-5-(2-quinolinylmethoxy)-benzene acetic acid methyl ester ethanedioate (1:1)], for which the inhibition at 0.5 µM in assay [3] (Rattus norvegicus, Leukocyte) worked out at 4%. For the same compound, in assay [1] (1 mg/kg i.p.), the “% Change in Edema 3 min” value was -10%, the “% Change in Edema 10 min” value is listed as -31% and the change in vivo at 1 mg/kg is -23%. In assay [1] (10 mg/kg i.p.), the “% Change in Edema 3 min” value is -39%, the “% Change in Edema 10 min” value is -77% and the “% Change in Edema 30 min” value is -37%. Also, in assay [4] (Leukocyte), the inhibition at 0.5 µM was 96%.
Turning to Luffarrellolide [reference compound], the “ED50 at +10 min” value in assay [1] (p.o., standard drugs) is on record as “Not Active”.
Consider `O=C(O)Cc1cc(OCc2ccc3ccccc3n2)ccc1Nc1c(Cl)cccc1Cl` [Example 4, 2-[(2,6-Dichlorophenyl)amino]-5-(2-quinolinylmethoxy)benzene acetic acid 2-amino-2-(hydroxymethyl)-1,3-propanediol salt (1:1)], for which, in assay [3], the IC50 (as a rule, the point on the concentration scale where inhibition reaches its midpoint) is 3700 nM.
Turning to `COc1cccc2c1cc([N+](=O)[O-])c1c(C(=O)O)cc3c(c12)OCO3` [Aristolochic Acid, reference compound], the “ED50 at +10 min” value in assay [1] (p.o., standard drugs) was “Not Active”.
On to `COC(=O)Cc1cc(OCc2ccc3ccc(Cl)cc3n2)ccc1Nc1c(Cl)cccc1Cl` [Example 5, 5-[(7-Chloro-2-quinolyl)methoxy]-2-[(2,6-dichlorophenyl)amino]benzene acetic acid methyl ester], for which the inhibition at 10 µM is -5.3% in assay [2]; 27% in assay [3] (Rattus norvegicus, Leukocyte, at 10 μM); 95% in assay [4] (Leukocyte, at 10 μM); -127% in assay [5]. Also, the inhibition at 0.5 µM was determined as 0% in assay [3] (Rattus norvegicus, Leukocyte) and 56% in assay [4] (Leukocyte).
For the compound `O=C1Cc2cc(OCc3ccc4ccccc4n3)ccc2N1c1ccccc1` [Example 15, 1-Phenyl-5-(2-quinolinylmethoxy)-1,3-dihydro-2H-indol-2-one], the inhibition at 0.5 µM is -9% in assay [3] (Rattus norvegicus, Leukocyte) and 40% in assay [4] (Leukocyte). Moreover, the inhibition at 10 µM in assay [5] is -24%.
As to `O=C(O)Cc1cc(OCc2ccc3ccccc3n2)ccc1Nc1c(Cl)cccc1Cl` [Example 3, 2-[(2,6-Dichlorophenyl)amino]-5-(2-quinolinylmethoxy)benzene acetic acid sodium salt], in assay [3] (acetic acid sodium salt), the IC50 was above 1000 nM. Moreover, in assay [1] (10 mg/kg i.p.), the “% Change in Edema 10 min” value is listed as “+12%”, the “% Change in Edema 30 min” value was -10% and the “% Change in Edema 60 min” value is “+12%”. The IC50 in assay [4] (acetic acid sodium salt) worked out at 20 nM. The inhibition at 10 µM in assay [5] was determined as 21.7%.
For the compound `CONC(=O)Cc1cc(OCc2ccc3ccccc3n2)ccc1Nc1c(Cl)cccc1Cl` [Example 12], the inhibition at 0.5 µM in assay [3] (Rattus norvegicus, Leukocyte) was -2%. In addition, in assay [1] (10 mg/kg i.p.), the “% Change in Edema 10 min” value is recorded as -15%, the “% Change in Edema 30 min” value was -45% and the “% Change in Edema 60 min” value is listed as -28%. In addition, in assay [1] (50 mg/kg p.o.), the “% Change in Edema 10 min” value is given as -2%, the “% Change in Edema 30 min” value is -36% and the “% Change in Edema 60 min” value is -22%. The inhibition at 0.5 µM in assay [4] (Leukocyte) stood at 70%. In addition, in assay [5], the inhibition at 10 µM is -41.5%.
